Literature values in article PMC9050811 (RSC Advances, 2020).

Experiments:
DNA supercoiling = details: read-out: IC50 in the DNA supercoiling assay; cited from earlier work
MTB = details: cited from earlier work
MTB H37Rv = details: cited from earlier work

SMILES | IC50 (DNA supercoiling) [nM] | MTB MIC (MTB) [µM] | MTB MIC against H37Rv (MTB H37Rv) [µg/mL]
O=c1nc(N2CCN(C(=S)Nc3ccc(Cl)cc3)CC2)sc2ccc([N+](=O)[O-])cc12 [N-(4-chlorophenyl)-4-(6-nitro-4-oxo-4H-benzo[e][1,3]thiazin-2-yl)piperazine-1-carbothioamide] | 510 | 4.41 | 
COc1cnc2ccc(=O)n(CCN3CCN(C(=O)Nc4ccc([N+](=O)[O-])cc4)CC3)c2c1 [4-(2-(7-methoxy-2-oxo-1,5-naphthyridin-1-(2H)-yl)ethyl)-N-(4-nitrophenyl)piperazine-1-carboxamide] | 290 | 3.45 | 
O=S(=O)(c1ccccc1)n1cc(CN2CCN(c3nc4ccccc4c4ccccc34)CC2)nn1 [G, 6-(4-((1-(phenylsulfonyl)-1H-1,2,3-triazol-4-yl)methyl)piperazin-1-yl)phenanthridine] |  |  | 1.56
c1ccc(N2CCN(c3nc4ccccc4c4ccccc34)CC2)nc1 [H, 6-(4-(pyridin-2-yl)piperazin-1-yl)phenanthridine] |  |  | 1.56
